Entries after “also recorded” stand apart in the source; their conditions may differ.
How the values were obtained:
[1] = tested on: ERG target genes in VCaP cells; experiment: qPCR analysis of ERG-target genes in VCaP cells; format: cell-based, human; conditions: siRNA or drug for 48 hours
Experimental: Total RNA was isolated from VCAP, RWPE or PrEC cells that were transfected with siRNA as indicated (Qiagen). Quantitative PCR (QPCR) was performed using SYBR Green dye on an Applied Biosystems 7300 Real Time PCR system (Applied Biosystems, Foster City, Calif.) as described (Tomlins, S. A., et al. Science (New York, N.Y. 310, 644-648 (2005)). Briefly, 1 μg of total RNA was reverse transcribed into cDNA using SuperScript 111 (Invitrogen, Carlsbad, Calif.) in the presence of random primers (Invitrogen). All reactions were performed in triplicate with SYBR Green Master Mix (Applied Biosystems) plus 25 ng of both the forward and reverse primer according to the manufacturer's recommended thermocycling conditions, and then subjected to melt curve analysis. […] The relative quantity of the target gene was completed for each sample using the ΔΔCt method by the comparing mean Ct of the gene to the average Ct of the housekeeping gene, β-Actin8. […] The primer sequences for the transcript analyzed were either previously described (Tomlins et al., 2008, supra) or are provided in Table 4.
Total RNA was isolated from VCAP, RWPE or PrEC cells that were transfected with siRNA as indicated (Qiagen). […] The relative quantity of the target gene was completed for each sample using the ΔΔCt method by the comparing mean Ct of the gene to the average Ct of the housekeeping gene, β-Actin8. […]

DU145 xenografts = experiment: DU145 mouse xenograft model; format: in vivo, mice; conditions: DU145 (ETS negative), Olaparib
From the text: Olaparib was obtained from Axon Medchem (Groningen, The Netherlands).

[2] = tested on: MDA-PCa-133 (ERG positive); experiment: Human prostate cancer tissue xenograft (primagraft) MDA-PCa-133; format: in vivo, mice; conditions: MDA-PCa-133, 40 mg/kg Olaparib; P=0.05 (Day 8), P<0.01 (day 16, 24 and 32)
Experimental: Human prostate cancer specimens MDA-PCa 2b-T (ETV1 positive), MDA-PCa-133 (ERG positive) and MDA PCa 118b (ETS-negative) were obtained (Li, Z. G., et al. The Journal of clinical investigation 118, 2697-2710 (2008)). Each xenografted tumor tissue was aseptically harvested from the host mice. New recipient mice were anesthetized by injecting […] intraperitoneally for chemical restraint before tumor implantation. About 0.5 cm^3 size of the excised tumor tissue was directly implanted into subcutaneous pockets of 6- to 8-week-old male CB17 SCID mice (Charles River Laboratories) in a laminar flow sterile hood. Sub-cutaneous pocket was carefully closed by applying 1 or 2 wound clips. All mice were monitored for 24 hours after implantation procedure for any apparent physiologic disturbances or missing wound clips. Olaparib (40 mg/Kg body weight) treatment was started after 72 hours. […] Body weight was also monitored weekly during the course of the study.

[3] = Serum ALT and AST of PC3-ERG mice (liver toxicity); format: in vivo
VCaP cells = experiment: γ-H2A.X immunofluorescence, VCaP cells; format: cell-based, human; conditions: Olaparib for 48 hours
Experimental: Cells were seeded at 25,000 cells/mL in 4-well chamber slide 24 hours prior to the addition of siRNA or drug as indicated. Merbarone (Sigma) was dissolved in DMSO and stored at 4° C. Cells were then washed once in PBS, fixed for 15 minutes in 100% methanol, washed in PBS, permeabilized for 5 minutes in PBS containing 0.2% Triton-X, washed twice in PBS, blocked for 30 minutes in PBS containing 0.5% donkey serum (Sigma, St. Louis, Mo.), held for 45 minutes in PBS containing 0.5% donkey serum and primary antibody: anti-γ-H2A.X mouse monoclonal (Millipore Cat #05-636), anti-γ-H2A.X rabbit polyclonal (Cell Signaling, Cat #9719, Danvers, Mass.), and anti-53BP1 rabbit polyclonal (Cell Signaling, Cat #4937, Danvers, Mass.) washed 3 times with PBS, held for 30 minutes in PBS containing 0.5% donkey serum and secondary antibody: Alexa Fluor 488-anti-Mouse (Invitrogen) or Alexa Fluor 594-anti-Rabbit (Invitrogen). Cells were then stained with DAPI for 5 minutes and slides were mounted 12 hours prior to analysis using Vectashield (Vector laboratories, Burlingame, Calif.). Images were taken using 100× oil lens on an Olympus Confocal microscope at the University of Michigan microscopy imaging lab.

[4] = tested on: PC3 model overexpressing T2:ERG; experiment: γH2A.X foci after radiation (DNA double strand break repair), isogenic PC3 model; format: cell-based; conditions: PC3, pre-treated with 10 μM Olaparib, then radiation
Experimental: (§1) The effect of ETS overexpression on repair of DNA double strand breaks was assayed. Isogenic PC3 and DU145 models, respectively, overexpressing either T2:ERG or ERG with a deleted ETS domain were pre-treated with or without 10 μM Olaparib and then treated with radiation. Immunofluorescence staining of γH2A.X foci was used to assess total levels of DNA damage and repair rate. The number of cells with >10 γH2A.X foci were quantified at each time point as indicated. Representative photomicrographs were taken 24 hours after treatment using an Olympus confocal microscope with a 100× Oil objective. All experiments were run in triplicate. Error bars are standard error of the mean.

[5] = tested on: DU145 model overexpressing T2:ERG; experiment: γH2A.X foci after radiation (DNA double strand break repair), isogenic DU145 model; format: cell-based; conditions: DU145, pre-treated with 10 μM Olaparib, then radiation
Experimental: as §1

[6] = tested on: VCaP and PC3 xenograft tumors; experiment: Ki67 and CD31 immunohistochemistry on tissue microarray of VCaP and PC3 xenograft tumors; conditions: pairwise t-test

O=C(c1cc(Cc2n[nH]c(=O)c3ccccc23)ccc1F)N1CCN(C(=O)C2CC2)CC1 [Olaparib, 4-[3-(4-Cyclopropanecarbonylpiperazine-1-carbonyl)-4-fluorobenzyl]-2H-phthalazin-1-one]
expression of the ERG target genes (qPCR) [1]: confirmed gene expression changes as predicted by the gene expression arrays; also recorded: altered expression of the ERG target genes
xenograft growth (DU145 xenografts): not responsive; also recorded: did not inhibit the growth
primagraft growth [2]: inhibited the growth
liver toxicity as assessed by serum levels of ALT and AST [3]: did not lead to liver toxicity
γ-H2A.X foci (VCaP cells): very high level of γ-H2A.X foci
ERG-enhanced DNA DSB damage repair (γH2A.X foci) [4]: blocked; also recorded: reversed by PARP inhibition
ERG-enhanced DNA DSB damage repair (γH2A.X foci) [5]: blocked; also recorded: reversed by PARP inhibition
average number of Ki67 positive cells [6]: Neither NU7026 nor Olaparib consistently led to a significant change; also recorded: no significant change
microvessel density (CD31) [6]: Neither NU7026 nor Olaparib consistently led to a significant change; also recorded: no significant change

Reference: patent US20120035244A1, “PARP1 TARGETED THERAPY” (THE REGENTS OF THE UNIVERSITY OF MICHIGAN, priority 2010, published 2012)
